Results reported in patent US7833513B2, “Treatment of Alzheimer's Disease” (Rhode Island Hospital, priority 2004, dated 2010).

Tests used:
IGF-I receptor = format: in vivo, Long Evans rat; settings: temporal lobe membrane extracts
Procedure: Membrane proteins were extracted from fresh frozen temporal lobe tissue (˜100 mg) by Polytron (Glen Mils Inc., Clifton, N.J.) homogenization in 5 volumes of NP-40 lysis buffer (50 mM Tris-HCl, pH 7.5, 150 mM NaCl, 1 mM EDTA, 2 mM EGTA, 1% NP-40) containing protease (1 mM PMSF, 0.1 mM TPCK, 1 μg/ml aprotinin, 1 μg/ml pepstatin A, 0.5 μg/ml leupeptin, 1 mM NaF, 1 mM Na4P2O7) and phosphatase (2 mM Na3VO4) inhibitors. The supernatant fractions obtained after centrifuging the samples at 10,000×g for 15 minutes at 4° C. were used in the binding assays. […] Protein concentrations were measured with the bicinchoninic acid (BCA) assay (Pierce, Rockford, Ill.).
Competitive equilibrium binding assays were used to assess growth factor binding in relation to ic-STZ-treatment. […]
All reactions were performed in 1.5 ml Eppendorff tubes, and the incubations were performed at 4° C. for 16 hours with gentle platform agitation. […] Each sample was counted for 1 minute in an LKB CompuGamma CS Gamma counter. Specific binding was calculated by subtracting fmols of non-specific binding, i.e. amount bound in the presence of excess cold ligand, from total fmols bound (absence of unlabeled competitive ligand). The binding assay results were analyzed using the GraphPad Prism 4 software (GraphPad Software, Inc., San Diego, Calif.).

[1] = system: cerebral cortex and hippocampus glucose and glycogen metabolism; settings: adult rats, intracerebroventricular injection; cited from earlier work
[2] = system: brain immunoreactivity (p53, GFAP, phospho-tau, ubiquitin, Aβ, ChAT, AChE); test: ic-STZ model: immunohistochemical staining of brain; format: in vivo, Long Evans rat
Text: Paraffin-embedded histological sections of pancreas (5 μm thick) and brain (8 μm thick) were stained with hematoxylin and eosin (H&E) and examined for histopathological lesions, i.e., inflammation, necrosis, and islet cell degeneration. […] Paraffin sections of brain were immunostained with monoclonal or polyclonal antibodies to phospho-tau, Aβ, p53, ubiquitin, glial fibrillary acidic protein (GFAP), choline acetyltransferase (ChAT), and acetylcholinesterase (AChE) to characterize the nature of ic-STZ-induced AD-type neurodegeneration. As negative controls for the immunostaining reactions, either the primary antibody was omitted or non-relevant monoclonal antibody to Hepatitis B virus was used in place of the relevant antibody.
Prior to immunostaining, the deparaffinized, re-hydrated tissue sections were sequentially treated with 0.1 mg/ml saponin in phosphate buffered saline (10 mM sodium phosphate, 0.9% NaCl, pH 7.4; PBS), for 20 minutes at room temperature. Endogenous peroxidase activity was quenched by treating the tissue sections with 3% hydrogen peroxide in methanol for 10 minutes, and non-specific binding sites were blocked by a 30-minute incubation in SuperBlock-TBS (Pierce Chemical Co., Rockford, Ill.) at room temperature. After overnight incubation at 4° C. with antibodies diluted to 0.1-1 μg/ml (according to the manufacturer's recommendations), immunoreactivity was detected using rat tissue-pre-adsorbed biotinylated secondary antibodies, avidin biotin horseradish peroxidase complex (ABC) reagents, and diaminobenzidine as the chromogen (Vector Laboratories, Burlingame, Calif.). de la Monte et al., Lab. Invest. 80:1323 (2000). The sections were counterstained with hematoxylin and preserved with mounting medium and coverglass. All sections were examined under code.

[3] = temporal cortex, hippocampus, hypothalamus/thalamus, cerebellar cortex

## CN(N=O)C(=O)NC1C(O)OC(CO)C(O)C1O (stereo not shown) [STZ]
IGF-I receptor
  IGF-I binding vs control: increased, although the difference was not statistically significant
[1]
  chronic reduction in glucose and glycogen metabolism: 10-30%
[2]; 14- and 21-day post-treatment
  p53 immunoreactivity in brain: only slightly increased relative to control
[2]; Day 7 post-treatment
  p53 immunoreactivity in brain: prominently increased
[2]; neurons, vessels, plaque-like deposits
  Aβ immunoreactivity: increased
[2]; rat, in vivo
  AChE immunoreactivity: increased
  ChAT immunoreactivity: decreased
  GFAP immunoreactivity: globally increased
[2]; [3]
  phospho-tau immunoreactivity: increased
  ubiquitin immunoreactivity: increased
